Measurements published in patent US6881741B2 (ViroChem Pharma Inc., priority 2001, dated 2005).

target: recombinant HCV NS5B (HCV RNA-dependent RNA polymerase) (Hepatitis C virus genotype 1b, UniProt P26663); assay: biochemical; conditions: HCV polymerase activity, list of compounds of Example 27; read-out: IC50 (polymerase activity)
Sequence (P26663 2420-3010 limits assumed): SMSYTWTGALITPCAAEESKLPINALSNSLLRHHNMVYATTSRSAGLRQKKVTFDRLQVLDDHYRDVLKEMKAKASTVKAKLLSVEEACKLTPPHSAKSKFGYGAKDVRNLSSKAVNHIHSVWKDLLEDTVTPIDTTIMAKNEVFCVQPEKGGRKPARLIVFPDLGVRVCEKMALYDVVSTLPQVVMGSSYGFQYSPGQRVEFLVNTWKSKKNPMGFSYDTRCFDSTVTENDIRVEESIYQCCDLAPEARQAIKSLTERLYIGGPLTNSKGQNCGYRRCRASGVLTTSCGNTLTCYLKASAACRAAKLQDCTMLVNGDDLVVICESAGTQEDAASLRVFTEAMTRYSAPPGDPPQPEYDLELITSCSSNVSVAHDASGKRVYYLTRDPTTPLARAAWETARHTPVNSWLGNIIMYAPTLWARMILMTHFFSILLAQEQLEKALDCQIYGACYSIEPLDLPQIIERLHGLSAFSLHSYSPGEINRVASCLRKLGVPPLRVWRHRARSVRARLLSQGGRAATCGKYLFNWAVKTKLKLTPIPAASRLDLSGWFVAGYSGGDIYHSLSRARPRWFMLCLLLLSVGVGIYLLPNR

Row | Compound | IC50
1 | Cc1cccc(CN(C(=O)C(C)C)c2cc(-c3ccccc3)sc2C(=O)O)c1 [Compound 465, 3-[ISOBUTYRYL-(3-METHYL-BENZYL)- AMINO]-5-PHENYL-THIOPHENE-2- CARBOXYLIC ACID] | 5 to 20 µM
2 | CCCC(=O)N(Cc1ccc(C(F)(F)F)cc1)c1cc(-c2ccccc2)sc1C(=O)O [Compound 415, 3-[BUTYRYL-(4-TRIFLUOROMETHYL- BENZYL)-AMINO]-5-PHENYL-THIOPHENE- 2-CARBOXYLIC ACID] | 5 to 20 µM
3 | CCC(=O)N(Cc1ccc(C)cc1)c1cc(-c2ccccc2)sc1C(=O)O [Compound 467, 3-[(4-METHYL-BENZYL)-PROPIONYL- AMINO]-5-PHENYL-THIOPHENE-2- CARBOXYLIC ACID] | 5 to 20 µM
4 | CC(C)N(C(=O)C1CC=CCC1)c1cc(-c2ccccc2)sc1C(=O)O (stereo not shown) [Compound 530, 3-[(CYCLOHEX-3-ENECARBONYL)- ISOPROPYL-AMINO]-5-PHENYL- THIOPHENE-2-CARBOXYLIC ACID] | 5 to 20 µM
5 | COCC(=O)N(Cc1ccc(F)cc1F)c1cc(-c2ccccc2)sc1C(=O)O [Compound 484, 3-[(2,4-DIFLUORO-BENZYL)-(2-METHOXY- ACETYL)-AMINO]-5-PHENYL-THIOPHENE- 2-CARBOXYLIC ACID] | 5 to 20 µM
6 | CC(c1ccccc1)N(C(=O)c1ccc(Cl)cc1Cl)c1cc(-c2ccccc2)sc1C(=O)O (stereo not shown) [Compound 403, 3-[(2,4-DICHLORO-BENZOYL)-(1-PHENYL- ETHYL)-AMINO]-5-PHENYL-THIOPHENE- 2-CARBOXYLIC ACID] | < 5 µM

same assay, conditions: related polymerase activity (Example 27 list); read-out: IC50

Row | Compound | IC50
7 | Cc1ccccc1S(=O)(=O)Nc1cc(-c2ccc(-c3ccc(Br)cc3)cc2)sc1C(=O)O [Compound 124, 5-(4′-BROMO-BIPHENYL-4-YL)-3-(TOLUENE-2-SULFONYLAMINO)-THIOPHENE-2-CARBOXYLIC ACID] | < 5 µM
8 | COC(=O)c1sc(-c2ccccc2)cc1NC(=O)c1ccccc1C(=O)O [Compound 51, 3-(2-CARBOXY-BENZOYLAMINO)-5-PHENYL-THIOPHENE-2-CARBOXYLIC ACID METHYL ESTER] | 5 to 20 µM
9 | CN(C(=O)c1ccc(Cl)c(Cl)c1)c1cc(-c2ccccc2)sc1C(=O)O [Compound 253, 3-[(3,4-DICHLORO-BENZOYL)-METHYL-AMINO]-5-PHENYL-THIOPHENE-2-CARBOXYLIC ACID] | 5 to 20 µM
10 | CC(C)=CCN(C(=O)c1ccc(C)cc1)c1cc(-c2ccccc2)sc1C(=O)O [Compound 300, 3-[(4-METHYL-BENZOYL)-(3-METHYL- BUT-ENYL)-AMINO]-5-PHENYL- THIOPHENE-2-CARBOXYLIC ACID] | 5 to 20 µM
11 | O=C(O)c1sc(-c2ccccc2)cc1NC(=O)N1CCN(c2cccc(C(F)(F)F)c2)CC1 [Compound 156, 5-PHENYL-3-{[4-(3-TRIFLUOROMETHYL-PHENYL)-PIPERAZINE-1-CARBONYL]-AMIN}-THIOPHENE-2-CARBOXYLIC ACID] | 5 to 20 µM
12 | O=C(O)c1sc(-c2ccccc2)cc1NS(=O)(=O)c1cc(F)ccc1F [Compound 53, 3-(2,5-DIFLUORO-BENZENESULFONYLAMINO)-5-PHENYL-THIOPHENE-2-CARBOXYLIC ACID] | < 5 µM
13 | O=C(O)c1sc(-c2ccccc2)cc1NS(=O)(=O)c1cc(F)c(Br)cc1F [Compound 138, 3-(4-BROMO-2,5-DIFLUORO-BENZENESULFONYLAMINO)-5-PHENYL-THIOPHENE-2-CARBOXYLIC ACID] | < 5 µM
14 | CN(C(=O)c1ccc(F)cc1F)c1cc(-c2ccccc2)sc1C(=O)O [Compound 78, 3-[(2,4-DIFLUORO-BENZOYL)-METHYL-AMINO]-5-PHENYL-THIOPHENE-2-CARBOXYLIC ACID] | 5 to 20 µM
15 | Cc1ccc(C(=O)N(C)c2cc(-c3cccc(N)c3)sc2C(=O)O)cc1 [Compound 271, 5-(3-AMINO-PHENYL)-3-[METHYL-(4-METHYL-BENZOYL)-AMINO]-THIOPHENE-2-CARBOXYLIC ACID] | 5 to 20 µM
16 | COc1cc(C)c(S(=O)(=O)Nc2cc(-c3ccccc3)sc2C(=O)O)c(C)c1C [Compound 22, 3-(4-METHOXY-2,3,6-TRIMETHYL-BENZENESULFONYLAMINO)-5-PHENYL-THIOPHENE-2-CARBOXYLIC ACID] | < 5 µM
17 | N#Cc1ccccc1S(=O)(=O)Nc1cc(-c2ccccc2)sc1C(=O)O [Compound 54, 3-(2-CYANO-BENZENESULFONYLAMINO)-5-PHENYL-THIOPHENE-2-CARBOXYLIC ACID] | < 5 µM
18 | CC(=O)c1ccc(-c2cc(NS(=O)(=O)c3ccccc3C)c(C(=O)O)s2)s1 [Compound 229, 5′-ACETYL-4-(TOLUENE-2-SULFONYLAMINO)-[2,2′]BITHIOPHENYL-5-CARBOXYLIC ACID] | < 5 µM
19 | C=CCN(C(=O)Cc1ccc(Cl)cc1)c1cc(-c2ccccc2)sc1C(=O)O [Compound 339, 3-(ALLYL-[2-(4-CHLORO-PHENYL)- ACETYL]-AMINO)-5-PHENYL-THIOPHENE- 2-CARBOXYLIC ACID] | 5 to 20 µM
20 | O=C(O)c1sc(-c2ccccc2)cc1NS(=O)(=O)c1ccccc1[N+](=O)[O-] [Compound 45, 3-(2-NITRO-BENZENESULFONYLAMINO)-5-PHENYL-THIOPHENE-2-CARBOXYLIC ACID] | < 5 µM
21 | O=C(O)c1sc(-c2ccccc2)cc1NS(=O)(=O)c1ccccc1OC(F)(F)F [Compound 31, 5-PHENYL-3-(2-TRIFLUOROMETHOXY-BENZENESULFONYLAMINO)-THIOPHENE-2-CARBOXYLIC ACID] | > 20 µM
22 | CCOC(=O)c1c(C)oc(-c2ccc(Cl)cc2)c1S(=O)(=O)Nc1cc(-c2ccccc2)sc1C(=O)O [Compound 144, 4-(2-CARBOXY-5-PHENYL-THIOPHEN-3-YLSULFAMOYL)-5-(4-CHLORO-PHENYL)-2-METHYL-FURAN-3-CARBOXYLIC ACID ETHYL ESTER] | 5 to 20 µM
23 | O=C(O)c1sc(-c2ccccc2)cc1NS(=O)(=O)c1ccc(F)c(F)c1 [Compound 143, 3-(3,4-DIFLUORO-BENZENESULFONYLAMINO)-5-PHENYL-THIOPHENE-2-CARBOXYLIC ACID] | < 5 µM

Row | Compound | IC50
24 | Cc1ccc(C(=O)N(Cc2ccccc2)c2cc(-c3ccccc3)sc2C(=O)O)cc1 [Compound 340, 3-[BENZYL-(4-METHYL-BENZOYL)- AMINO]-5-PHENYL-THIOPHENE-2- CARBOXYLIC ACID] | < 5 µM
25 | CC(C)N(C(=O)c1ccc(Cl)cc1N)c1cc(-c2ccccc2)sc1C(=O)O [Compound 328, 3-[(2-AMINO-4-CHLORO-BENZOYL)- ISOPROPYL-AMINO]-5-PHENYL- THIOPHENE-2-CARBOXYLIC ACID] | < 5 µM
26 | CC1CCCC(C(=O)N(c2cc(-c3ccccc3)sc2C(=O)O)C(C)C)C1 (stereo not shown) [Compound 371, 3-[(3-METHYL- CYCLOHEXANECARBOXYL)-ISOPROPYL- AMINO]-5-PHENYL-THIOPHENE-2- CARBOXYLIC ACID] | > 20 µM
27 | O=C(O)c1sc(-c2ccccc2)cc1NS(=O)(=O)c1cccs1 [Compound 23, 5-PHENYL-3-(THIOPHENE-2-SULFONYLAMINO)-THIOPHENE-2-CARBOXYLIC ACID] | < 5 µM
28 | O=C(O)c1sc(-c2ccccc2)cc1NS(=O)(=O)c1ccc(Cl)cc1Cl [Compound 7, 3-(2,4-DICHLORO-BENZENESULFONYLAMINO)-5-PHENYL-THIOPHENE-2-CARBOXYLIC ACID] | < 5 µM
29 | CCN(C(=O)C1CCC1)c1cc(-c2ccccc2)sc1C(=O)O [Compound 393, 3-(CYCLOBUTANECARBONYL-ETHYL- AMINO)-5-PHENYL-THIOPHENE-2- CARBOXYLIC ACID] | 5 to 20 µM
30 | Cc1ccc(C(=O)N(c2cc(-c3ccccc3)sc2C(=O)O)C(C)C)c(C)c1 [Compound 262, 3-[(2,4-DIMETHYL-BENZOYL)-ISOPROPYL-AMINO]-5-PHENYL-THIOPHENE-2-CARBOXYLIC ACID] | < 5 µM
31 | CC(C)N(C(=O)c1ccc(C#N)cc1)c1cc(-c2ccccc2)sc1C(=O)O [Compound 311, 3-[(4-CYANO-BENZOYL)-ISOPROPYL- AMINO]-5-PHENYL-THIOPHENE-2- CARBOXYLIC ACID] | 5 to 20 µM
32 | Cc1ccccc1S(=O)(=O)Nc1cc(-c2ccc(F)cc2)sc1C(=O)O [Compound 66, 5-(4-FLUORO-PHENYL)-3-(TOLUENE-2-SULFONYLAMINO)-THIOPHENE-2-CARBOXYLIC ACID] | < 5 µM
33 | CCOC(=O)c1c(S(=O)(=O)Nc2cc(-c3ccccc3)sc2C(=O)O)c(-c2ccccc2)n(-c2ccccc2)c1C [Compound 155, 4-(2-CARBOXY-5-PHENYL-THIOPHEN-3-YLSULFAMOYL)-2-METHYL-1,5-DIPHENYL-1H-PYRROLE-3-CARBOXYLIC ACID ETHYL ESTER] | < 5 µM
34 | CC1CCC(C(=O)N(c2cc(-c3cccc(C(F)(F)F)c3)sc2C(=O)O)C(C)C)CC1 (stereo not shown) [Compound 381, 3-[ISOPROPYL-(4-METHYL- CYCLOHEXANECARBONYL)-AMINO]-5-(3- TRIFLUOROMETHYL-PHENYL)- THIOPHENE-2-CARBOXYLIC ACID] | < 5 µM
35 | Cc1ccc(C(=O)N(C)c2cc(-c3ccc(F)c(F)c3)sc2C(=O)O)cc1 [Compound 270, 5-(3,4-DIFLUORO-PHENYL)-3-[METHYL-(4-METHYL-BENZOYL)-AMINO]-THIOPHENE-2-CARBOXYLIC ACID] | < 5 µM
36 | Cc1ccc(S(=O)(=O)Nc2cc(-c3ccc(C(N)=O)cc3)sc2C(=O)O)cc1 [Compound 259, 5-(4-CARBAMOYL-PHENYL)-3-(TOLUENE-4-SULFONYLAMINO)-THIOPHENE-2-CARBOXYLIC ACID] | < 5 µM
37 | Cc1cc(S(=O)(=O)N(Cc2cccc(I)c2)c2cc(-c3ccccc3)sc2C(=O)O)c(C)cc1Cl [Compound 1, 3-[(4-CHLORO-2,5-DIMETHYL-BENZENESULFONYL)-(3-IODO-BENZYL)-AMINO]-5-PHENYL-THIOPHENE-2-CARBOXYLIC ACID] | 5 to 20 µM
38 | Cc1ccc(S(=O)(=O)Nc2cc(-c3ccccc3)sc2C(=O)O)c([N+](=O)[O-])c1 [Compound 177, 3-(4-METHYL-2-NITRO-BENZENESULFONYLAMINO)-5-PHENYL-THIOPHENE-2-CARBOXYLIC ACID] | 5 to 20 µM
39 | Cc1ccc(-c2cc(NS(=O)(=O)c3ccccc3C)c(C(=O)O)s2)nc1 [Compound 184, 5-(5-METHYL-PYRIDIN-2-YL)-3-(TOLUENE-2-SULFONYLAMINO)-THIOPHENE-2-CARBOXYLIC ACID] | < 5 µM
40 | O=C(O)c1sc(-c2ccc(Cl)cc2)cc1NS(=O)(=O)c1ccccn1 [Compound 116, 5-(4-CHLORO-PHENYL)-3-(PYRIDINE-2-SULFONYLAMINO)-THIOPHENE-2-CARBOXYLIC ACID] | 5 to 20 µM
